27 molecules from patent publication US7135467B2, “HIV integrase inhibitors” (priority 2003, dated 2006) can be followed below.

Usually IC50 stands for the concentration needed to halve the response being measured.

The target in this assay is T1, HIV-integrase (recombinant integrase) (Human immunodeficiency virus type 1 group M subtype B, UniProt P12497).
T1 construct: Recombinant integrase (0.26 ng) was incubated with the beads
The assay is described as follows: HIV-Integrase Inhibition Activity (SPA bead strand-transfer assay). The assay is classed as biochemical. As to conditions: recombinant integrase on biotin labeled substrate DNA/SPA beads, P33 labeled target DNA; read-out: Activity (IC50 against HIV-integrase). As to the method:
To evaluate in-vitro activity against HIV-integrase, 5 pmole of biotin labeled substrate DNA was bound to 100 μg of Streptavidin coated PVT SPA beads (Amersham Pharmacia Biotech). Recombinant integrase (0.26 ng) was incubated with the beads for 90 min at 37° C. Unbound enzyme was removed by washing the complex followed by addition of inhibitors and 0.1 fmol of P33 labeled target DNA. The reaction was stopped by adding EDTA to a final concentration of 10 mM. Samples were counted in TopCountNXT (Packard) and the CPM was used as a measure of integration. The reaction condition was as described in A. Engelman and R. Craigie, J. Virol. 69, 5908–5911 (1995). The sequences of substrate and target DNA were described in Nucleic Acid Research 22, 1121–1122 (1994). Activity equal to A refers to a compound having IC50=0.003 to 0.10 μM while B and C denote compounds the following IC50=0.1 to 1.0 μM and IC50≧1.0 μM respectively.
As to `Cn1c(N2CCCCS2(=O)=O)nc(C(=O)NCc2ccc(F)c(C(F)(F)F)c2)c(O)c1=O` [Compound 20, N-[[4-fluoro-3-(trifluoromethyl)phenyl]methyl]-1,6-dihydro-5-hydroxy-1-methyl-6-oxo-2-(tetrahydro-1,1-dioxido-2H-1,2-thiazin-2-yl)-4-pyrimidinecarboxamide], the IC50 lay in the range of 3 to 100 nM.
`Cn1c(N2CCCCS2(=O)=O)nc(C(=O)NCc2cccc(OC(F)(F)F)c2)c(O)c1=O` [Compound 48, 1,6-dihydro-5-hydroxy-1-methyl-6-oxo-2-(tetrahydro-1,1-dioxido-2H-1,2-thiazin-2-yl)-N-[[3-(trifluoromethoxy)phenyl]methyl]-4-pyrimidinecarboxamide]: the half-maximal inhibitory concentration (IC50) lay in the range of 100 to 1000 nM.
The result for `CNC(=O)N1CCN(c2nc(C(=O)NCc3ccc(F)c(C)c3)c(O)c(=O)n2C)CC1` [Compound 88, N-[(4-fluoro-3-methylphenyl)methyl]-1,6-dihydro-5-hydroxy-1-methyl-2-[4-[(methylamino)carbonyl]-1-piperazinyl]-6-oxo-4-pyrimidinecarboxamide] reads 3 to 100 nM.
The result for `Cn1c(N2CCC(C(N)=O)CC2)nc(C(=O)NCc2ccc(F)cc2)c(O)c1=O` [Compound 94, 2-[4-(aminocarbonyl)-1-piperidinyl]-N-[(4-fluorophenyl)methyl]-1,6-dihydro-5-hydroxy-1-methyl-6-oxo-4-pyrimidinecarboxamide] reads 3 to 100 nM; that for `CC(=O)N1CCN(c2nc(C(=O)NCc3ccc(F)c(C)c3)c(O)c(=O)n2C)CC1` [Compound 72, 2-(4-acetyl-1-piperazinyl)-N-[(4-fluoro-3-methylphenyl)methyl]-1,6-dihydro-5-hydroxy-1-methyl-6-oxo-4-pyrimidinecarboxamide], 3 to 100 nM; that for `CCCN1CCN(c2nc(C(=O)NCc3ccc(F)cc3)c(O)c(=O)n2C)CC1` [Compound 73, N-[(4-fluorophenyl)methyl]-1,6-dihydro-5-hydroxy-1-methyl-6-oxo-2-(4-propyl-1-piperazinyl)-4-pyrimidinecarboxamide], 3 to 100 nM.
With `Cc1ncn(-c2nc(C(=O)NCc3ccc(F)cc3)c(O)c(=O)n2C)n1` [Compound 58, N-[(4-fluorophenyl)methyl]-1,6-dihydro-5-hydroxy-1-methyl-2-(3-methyl-1H-1,2,4-triazol-1-yl)-6-oxo-4-pyrimidinecarboxamide], the 50% inhibitory concentration (IC50) fell in the range of 100 to 1000 nM.
The result for `Cn1c(N2CCCCS2(=O)=O)nc(C(=O)NCc2ccc(F)cc2F)c(O)c1=O` [Compound 17, N-[(2,4-difluorophenyl)methyl]-1,6-dihydro-5-hydroxy-1-methyl-6-oxo-2-(tetrahydro-1,1-dioxido-2H-1,2-thiazin-2-yl)-4-pyrimidinecarboxamide] reads 3 to 100 nM; that for `Cn1c(N2CCCCS2(=O)=O)nc(C(=O)NCCc2ccc(F)cc2)c(O)c1=O` [Compound 16, N-[2-(4-fluorophenyl)ethyl]-1,6-dihydro-5-hydroxy-1-methyl-6-oxo-2-(tetrahydro-1,1-dioxido-2H-1,2-thiazin-2-yl)-4-pyrimidinecarboxamide], not below 1000 nM.
The result for `Cn1c(N2CCCCS2(=O)=O)nc(C(=O)NCc2ccccc2C(F)(F)F)c(O)c1=O` [Compound 46, 1,6-dihydro-5-hydroxy-1-methyl-6-oxo-2-(tetrahydro-1,1-dioxido-2H-1,2-thiazin-2-yl)-N-[[2-(trifluoromethyl)phenyl]methyl]-4-pyrimidinecarboxamide] reads 100 to 1000 nM; that for `Cc1cc(CNC(=O)c2nc(N3CCN(C(=O)N4CCNC4=O)CC3)n(C)c(=O)c2O)ccc1F` [Compound 86, N-[(4-fluoro-3-methylphenyl)methyl]-1,6-dihydro-5-hydroxy-1-methyl-6-oxo-2-[4-[(2-oxo-1-imidazolidinyl)carbonyl]-1-piperazinyl]-4-pyrimidinecarboxamide], 3 to 100 nM.
As for `Cn1c(N2Cc3ccc(F)cc3C2=O)nc(C(=O)NCc2ccc(F)cc2)c(O)c1=O` [Compound 102, 2-(6-fluoro-1,3-dihydro-1-oxo-2H-isoindol-2-yl)-N-[(4-fluorophenyl)methyl]-1,6-dihydro-5-hydroxy-1-methyl-6-oxo-4-pyrimidinecarboxamide], the IC50 is 3 to 100 nM.
Regarding `Cn1c(N2CCN(CCO)CC2)nc(C(=O)NCc2ccc(F)cc2)c(O)c1=O` [Compound 67, N-[(4-fluorophenyl)methyl]-1,6-dihydro-5-hydroxy-2-[4-(2-hydroxyethyl)-1-piperazinyl]-1-methyl-6-oxo-4-pyrimidinecarboxamide], the IC50 was in the range of 3 to 100 nM.
Under `Cn1c(N2CCCCS2(=O)=O)nc(C(=O)NCCc2cccc(Cl)c2)c(O)c1=O` [Compound 30, N-[2-(3-chlorophenyl)ethyl]-1,6-dihydro-5-hydroxy-1-methyl-6-oxo-2-(tetrahydro-1,1-dioxido-2H-1,2-thiazin-2-yl)-4-pyrimidinecarboxamide] stands 100 to 1000 nM; under `Cn1c(N2CCCCS2(=O)=O)nc(C(=O)NCCc2ccc(Cl)cc2)c(O)c1=O` [Compound 26, N-[2-(4-chlorophenyl)ethyl]-1,6-dihydro-5-hydroxy-1-methyl-6-oxo-2-(tetrahydro-1,1-dioxido-2H-1,2-thiazin-2-yl)-4-pyrimidinecarboxamide], not below 1000 nM.
The result for `Cn1c(N2CCCCS2(=O)=O)nc(C(=O)NCCCc2ccc(Cl)c(Cl)c2)c(O)c1=O` [Compound 7, N-[3-(3,4-dichlorophenyl)propyl]-1,6-dihydro-5-hydroxy-1-methyl-6-oxo-2-(tetrahydro-1,1-dioxido-2H-1,2-thiazin-2-yl)-4-pyrimidinecarboxamide] reads not below 1000 nM; that for `COc1ccc(CNC(=O)c2nc(N3CCCCS3(=O)=O)n(C)c(=O)c2O)cc1` [Compound 10, 1,6-dihydro-5-hydroxy-N-[(4-methoxyphenyl)methyl]-1-methyl-6-oxo-2-(tetrahydro-1,1-dioxido-2H-1,2-thiazin-2-yl)-4-pyrimidinecarboxamide], 3 to 100 nM; that for `Cn1c(N2CCCCS2(=O)=O)nc(C(=O)NCc2cccc(C(F)(F)F)c2)c(O)c1=O` [Compound 29, 1,6-dihydro-5-hydroxy-1-methyl-6-oxo-2-(tetrahydro-1,1-dioxido-2H-1,2-thiazin-2-yl)-N-[[3-(trifluoromethyl)phenyl]methyl]-4-pyrimidinecarboxamide], 3 to 100 nM.
The result for `Cn1c(N2CCCCS2(=O)=O)nc(C(=O)NCCc2ccccc2)c(O)c1=O` [Compound 31, 1,6-dihydro-5-hydroxy-1-methyl-6-oxo-N-(2-phenylethyl)-2-(tetrahydro-1,1-dioxido-2H-1,2-thiazin-2-yl)-4-pyrimidinecarboxamide] reads not below 1000 nM; that for `Cn1c(N2CCCCC2CCO)nc(C(=O)NCc2ccc(F)cc2)c(O)c1=O` (stereo not drawn) [Compound 98, N-[(4-fluorophenyl)methyl]-1,6-dihydro-5-hydroxy-2-[2-(2-hydroxyethyl)-1-piperidinyl]-1-methyl-6-oxo-4-pyrimidinecarboxamide], 3 to 100 nM; that for `Cc1cccc(CNC(=O)c2nc(N3CCCCS3(=O)=O)n(C)c(=O)c2O)c1` [Compound 9, 1,6-dihydro-5-hydroxy-1-methyl-N-[(3-methylphenyl)methyl]-6-oxo-2-(tetrahydro-1,1-dioxido-2H-1,2-thiazin-2-yl)-4-pyrimidinecarboxamide], 3 to 100 nM.
Regarding `Cc1ccc(CNC(=O)c2nc(N3CCCCS3(=O)=O)n(C)c(=O)c2O)o1` [Compound 23, 1,6-dihydro-5-hydroxy-1-methyl-N-[(5-methyl-2-furanyl)methyl]-6-oxo-2-(tetrahydro-1,1-dioxido-2H-1,2-thiazin-2-yl)-4-pyrimidinecarboxamide], the IC50 lay in the range of 3 to 100 nM.
Under `Cn1c(N2CCN(c3ncccn3)CC2)nc(C(=O)NCc2ccc(F)cc2)c(O)c1=O` [Compound 77, N-[(4-fluorophenyl)methyl]-1,6-dihydro-5-hydroxy-1-methyl-6-oxo-2-[4-(2-pyrimidinyl)-1-piperazinyl]-4-pyrimidinecarboxamide] stands 3 to 100 nM; under `Cc1cc(CNC(=O)c2nc(N3CCCCS3(=O)=O)n(C)c(=O)c2O)ccc1F` [Compound 13, N-[(4-fluoro-3-methylphenyl)methyl]-1,6-dihydro-5-hydroxy-1-methyl-6-oxo-2-(tetrahydro-1,1-dioxido-2H-1,2-thiazin-2-yl)-4-pyrimidinecarboxamide], 3 to 100 nM; under `Cc1cc(CNC(=O)c2nc(N3CCN(c4ccccn4)CC3)n(C)c(=O)c2O)ccc1F` [Compound 76, N-[(4-fluoro-3-methylphenyl)methyl]-1,6-dihydro-5-hydroxy-1-methyl-6-oxo-2-[4-(2-pyridinyl)-1-piperazinyl]-4-pyrimidinecarboxamide], 3 to 100 nM.
On to `CNc1nc(C(=O)NCc2ccc(F)cc2)c(O)c(=O)n1C` [Compound 64, 5-Hydroxy-1-methyl-2-methylamino-6-oxo-1,6-dihydro-pyrimidine-4-carboxylic acid 4-fluoro-benzylamine], for which the IC50 was 3 to 100 nM.
On to `Cn1c(N2CCCCS2(=O)=O)nc(C(=O)NCc2cccc(Cl)c2)c(O)c1=O` [Compound 5, N-[(3-chlorophenyl)methyl]-1,6-dihydro-5-hydroxy-1-methyl-6-oxo-2-(tetrahydro-1,1-dioxido-2H-1,2-thiazin-2-yl)-4-pyrimidinecarboxamide], for which the IC50 lay within 3 to 100 nM.
